According to PMC11945486, “TAS1R2/TAS1R3 Single-Nucleotide Polymorphisms Affect Sweet Taste Receptor Activation by Sweeteners: The SWEET Project” (Nutrients, 2025):
Like-named read-outs stand apart in the source and are kept apart here.

How the values were obtained:
[1] = biological target: T1, human TAS1R2-C9S/TAS1R3-WT (Homo sapiens, UniProt Q7RTX0+Q8TE23); experiment: Calcium mobilisation assay, TAS1R2 variant C9S with TAS1R3-WT; format: cell-based; conditions: for Max ΔF/F0: maximal signal amplitude
T1 construct: expressed in transfected cells; host or cells: HEK293T-Gα16gust44
T1 sequence (Q8TE23 20-839): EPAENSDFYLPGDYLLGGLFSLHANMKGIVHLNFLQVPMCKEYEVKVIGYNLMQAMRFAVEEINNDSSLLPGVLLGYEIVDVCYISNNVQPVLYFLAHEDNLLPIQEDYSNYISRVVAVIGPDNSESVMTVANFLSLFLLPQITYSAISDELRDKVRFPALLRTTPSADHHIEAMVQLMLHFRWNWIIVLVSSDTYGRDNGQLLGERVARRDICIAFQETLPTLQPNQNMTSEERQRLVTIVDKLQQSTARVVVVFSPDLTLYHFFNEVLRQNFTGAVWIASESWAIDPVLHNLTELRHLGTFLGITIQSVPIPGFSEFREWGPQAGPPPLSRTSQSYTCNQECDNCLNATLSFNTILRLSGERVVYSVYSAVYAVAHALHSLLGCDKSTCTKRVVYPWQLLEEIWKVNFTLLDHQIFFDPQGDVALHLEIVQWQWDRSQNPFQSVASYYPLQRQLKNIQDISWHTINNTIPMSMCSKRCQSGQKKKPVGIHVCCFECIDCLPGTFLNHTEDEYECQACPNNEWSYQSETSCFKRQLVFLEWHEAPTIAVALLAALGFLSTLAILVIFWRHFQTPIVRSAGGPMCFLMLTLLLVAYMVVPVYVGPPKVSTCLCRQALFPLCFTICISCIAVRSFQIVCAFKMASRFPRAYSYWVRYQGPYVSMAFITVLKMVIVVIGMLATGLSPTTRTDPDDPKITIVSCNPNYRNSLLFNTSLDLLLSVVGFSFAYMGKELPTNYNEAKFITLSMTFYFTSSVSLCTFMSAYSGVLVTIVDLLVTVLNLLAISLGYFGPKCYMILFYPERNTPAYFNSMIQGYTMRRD
T1 sequence (Q7RTX0 21-852): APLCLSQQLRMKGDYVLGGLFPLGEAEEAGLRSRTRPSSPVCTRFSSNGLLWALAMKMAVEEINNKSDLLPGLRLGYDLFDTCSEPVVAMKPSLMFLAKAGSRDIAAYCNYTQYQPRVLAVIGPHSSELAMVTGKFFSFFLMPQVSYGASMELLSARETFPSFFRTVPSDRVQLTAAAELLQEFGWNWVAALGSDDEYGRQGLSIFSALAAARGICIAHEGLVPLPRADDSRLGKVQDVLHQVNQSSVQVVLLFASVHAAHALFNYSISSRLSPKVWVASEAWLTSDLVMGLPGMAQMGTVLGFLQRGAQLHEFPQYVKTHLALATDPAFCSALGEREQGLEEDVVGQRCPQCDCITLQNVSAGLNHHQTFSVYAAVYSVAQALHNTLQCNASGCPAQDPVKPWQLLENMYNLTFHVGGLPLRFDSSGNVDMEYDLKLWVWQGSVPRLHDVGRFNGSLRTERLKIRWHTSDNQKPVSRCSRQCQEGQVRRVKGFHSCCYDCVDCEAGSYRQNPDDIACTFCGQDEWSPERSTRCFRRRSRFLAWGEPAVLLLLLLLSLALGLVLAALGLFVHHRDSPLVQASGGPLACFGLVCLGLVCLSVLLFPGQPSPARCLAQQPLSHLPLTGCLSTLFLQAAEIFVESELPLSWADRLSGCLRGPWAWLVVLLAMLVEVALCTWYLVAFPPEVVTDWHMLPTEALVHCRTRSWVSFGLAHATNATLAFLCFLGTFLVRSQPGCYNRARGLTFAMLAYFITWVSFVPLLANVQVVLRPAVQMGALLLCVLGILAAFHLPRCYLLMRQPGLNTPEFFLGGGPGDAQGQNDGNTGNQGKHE
Text: (§1) The coding sequences for TAS1R2 and TAS1R3 were commercially synthesised, and the human codon was optimised for expression in human cells. The coding sequences of human TAS1R2 and TAS1R3 were subcloned and inserted into the mammalian expression vectors pcDNA6/myc-HisA and pcDNA4/myc-HisA (Invitrogen; Thermo Fisher Scientific; Illkirch, France) between the EcoRI and NotI restriction sites, generating the plasmids pcDNA6-TAS1R2 and pcDNA4-TAS1R3, respectively. To increase protein expression in mammalian cells, an upstream start codon was used, which was a sequence called MAX, corresponding to the QBI SP163 element also described in pcDNA4-HisMax (Invitrogen; Thermo Fisher Scientific; Illkirch, France). To measure the expression level of the receptor by immunohistochemistry, we used the FLAG sequence ([…]) in the C-terminal position, which encodes the FLAG tag epitope. SNP variants of TAS1R2 and TAS1R3 were constructed based on […], respectively, using site-directed mutagenesis (Genewiz; Leipzig, Germany).
(§2) The HEK293T cells were kindly provided by Jay P. Slack (Givaudan Flavors Corporation; Cincinnati, OH, USA). HEK293T cells stably transfected with Gα16gust44 [43, 67] were seeded in poly-D-lysine-coated clear-bottom black 96-well plates (0.35 × 10^5 cells/well) in high-glucose DMEM supplemented with 2 mM GlutaMAX, 10% dialysed foetal bovine serum with penicillin/streptomycin and G418 (400 μg/mL) at 37 °C and 6.3% CO2 in a humidified atmosphere as previously reported. […] As a negative control, HEK293T cells were mock-transfected with the empty expression vector. After a further 24 h of incubation, the HEK293T cells were washed with C1 buffer (130 mM NaCl, 5 mM KCl, 10 mM HEPES pH 7.4 and 2 mM CaCl2). The 96-well plates containing the cells were then stimulated with sweet-tasting compounds. […] Different concentration ranges were tested depending on the sweet compound injected. The Ca^2+ changes were expressed as fractional changes in fluorescent light intensity: ΔF/F = (F − F0)/F0, where F was the fluorescent light intensity at each point, and F0 was the value of emitted fluorescent light prior to stimulus application. To calculate dose–response relationships, the changes in fluorescence upon stimulus application were averaged, mock-subtracted and baseline-corrected. The dose–response data obtained were adjusted using a 4-parameter logistic equation. The half-maximal effective concentrations (EC50 values) and maximal signal amplitudes were calculated using SigmaPlot software (version 15.0) (Systat Software; San Jose, CA, USA).
(§3) For in vitro calcium mobilisation assay performed on hTAS1R2-SNPs, hTAS1R3-SNPs and mTAS1R3-I60T, 6 to 7 concentrations were tested for each sweet compound, plus buffer alone. All concentration–receptor combinations were measured in duplicate, and each experiment was repeated at least 4 times (8 wells/concentration). Results were expressed for each concentration as ΔF/F mean ± SEM and represented as dose–response curves.

[2] = biological target: T2, human TAS1R2-WT/TAS1R3-WT (Homo sapiens, UniProt Q7RTX0+Q8TE23); experiment: Calcium mobilisation assay, HEK293T-Gα16gust44 cells, human sweet taste receptor WT; format: cell-based; conditions: for Max ΔF/F0: maximal signal amplitude; for EC50: read-out: EC50
T2 construct: expressed in transfected cells; host or cells: HEK293T-Gα16gust44
T2 sequence (Q8TE23 20-839): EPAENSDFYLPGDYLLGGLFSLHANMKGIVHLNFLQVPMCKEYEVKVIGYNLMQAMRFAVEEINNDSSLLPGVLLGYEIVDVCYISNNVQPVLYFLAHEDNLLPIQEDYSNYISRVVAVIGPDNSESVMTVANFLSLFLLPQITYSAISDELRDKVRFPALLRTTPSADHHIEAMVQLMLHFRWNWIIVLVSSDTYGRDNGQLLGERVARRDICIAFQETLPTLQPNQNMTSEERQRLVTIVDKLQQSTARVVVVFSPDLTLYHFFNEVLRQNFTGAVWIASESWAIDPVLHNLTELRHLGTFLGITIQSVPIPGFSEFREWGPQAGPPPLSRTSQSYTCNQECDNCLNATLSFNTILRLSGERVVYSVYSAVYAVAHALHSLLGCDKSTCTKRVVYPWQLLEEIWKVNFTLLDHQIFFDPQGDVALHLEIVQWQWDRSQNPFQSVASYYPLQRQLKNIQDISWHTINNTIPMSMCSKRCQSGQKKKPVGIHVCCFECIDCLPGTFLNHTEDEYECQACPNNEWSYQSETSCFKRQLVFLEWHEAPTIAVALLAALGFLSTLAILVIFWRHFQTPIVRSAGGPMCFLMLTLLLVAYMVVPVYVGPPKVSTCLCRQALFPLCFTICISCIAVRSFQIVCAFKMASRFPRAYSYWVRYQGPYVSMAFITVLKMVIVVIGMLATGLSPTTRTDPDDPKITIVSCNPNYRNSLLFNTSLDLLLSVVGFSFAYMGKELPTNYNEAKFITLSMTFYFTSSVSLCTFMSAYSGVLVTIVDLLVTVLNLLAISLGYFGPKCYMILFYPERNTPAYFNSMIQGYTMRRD
T2 sequence (Q7RTX0 21-852): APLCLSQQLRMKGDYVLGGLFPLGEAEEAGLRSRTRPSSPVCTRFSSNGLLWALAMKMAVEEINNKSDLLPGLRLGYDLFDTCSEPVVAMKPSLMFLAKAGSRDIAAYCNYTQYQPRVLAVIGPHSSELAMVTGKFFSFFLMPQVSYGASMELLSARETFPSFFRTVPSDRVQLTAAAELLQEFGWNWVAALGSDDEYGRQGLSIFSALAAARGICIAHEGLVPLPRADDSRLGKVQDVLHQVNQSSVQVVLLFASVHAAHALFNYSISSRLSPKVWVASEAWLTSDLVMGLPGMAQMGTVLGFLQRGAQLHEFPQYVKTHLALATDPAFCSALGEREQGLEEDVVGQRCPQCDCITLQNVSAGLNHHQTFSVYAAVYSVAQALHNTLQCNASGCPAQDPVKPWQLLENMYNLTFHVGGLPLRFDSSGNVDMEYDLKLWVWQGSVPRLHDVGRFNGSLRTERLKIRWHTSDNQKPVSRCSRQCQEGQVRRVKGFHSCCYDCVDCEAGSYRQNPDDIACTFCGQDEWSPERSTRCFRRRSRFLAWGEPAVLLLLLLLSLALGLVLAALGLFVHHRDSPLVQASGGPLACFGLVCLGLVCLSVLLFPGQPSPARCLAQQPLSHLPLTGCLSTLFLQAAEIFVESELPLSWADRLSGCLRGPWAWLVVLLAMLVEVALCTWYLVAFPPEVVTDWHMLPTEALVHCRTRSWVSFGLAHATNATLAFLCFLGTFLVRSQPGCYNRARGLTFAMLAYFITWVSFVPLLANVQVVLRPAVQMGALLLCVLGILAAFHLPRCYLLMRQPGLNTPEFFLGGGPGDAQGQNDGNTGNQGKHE
Text: as §1, §2, §3

EC50 [1] [µM]	R1 = Variant EC50/WT EC50 [1]	Max ΔF/F0 [1]	R1 = Variant EC50/WT EC50 ([2]; TAS1R2-WT + TAS1R3-WT)	Max ΔF/F0 ([2]; TAS1R2-WT + TAS1R3-WT)	EC50 ([2]; TAS1R2-WT + TAS1R3-WT) [µM]	R1 = Variant EC50/WT EC50 ([2]; TAS1R2-WT/TAS1R3-WT)	Max ΔF/F0 ([2]; TAS1R2-WT/TAS1R3-WT)	EC50 ([2]; TAS1R2-WT/TAS1R3-WT) [µM]	Compound
466 ± 54	0.7	0.32 ± 0.01	1.0	0.31 ± 0.01	705 ± 7	1.0	0.28 ± 0.01	622 ± 45	CC1=CC(=O)NS(=O)(=O)O1 [Acesulfame K, acesulfame K]
99 ± 5.2	1.3	0.83 ± 0.02	1.0	0.71 ± 0.02	76.7 ± 4.4	1.0	1.13 ± 0.01	50.3 ± 11	COc1ccc(CCC(=O)c2c(O)cc(O[C@@H]3O[C@H](CO)[C@@H](O)[C@H](O)[C@H]3O[C@@H]3O[C@@H](C)[C@H](O)[C@@H](O)[C@H]3O)cc2O)cc1O [NHDC, neohesperidin dihydrochalcone]
0.85 ± 0.16	1.0	0.66 ± 0.04	1.0	0.56 ± 0.03	0.84 ± 0.13	1.0	0.65 ± 0.02	1.22 ± 0.11	COC(=O)[C@H](Cc1ccccc1)NC(=O)[C@H](CC(=O)O)NCCC(C)(C)C [Neotame]

Compound	EC50 [1] [µM]	R1 = Variant EC50/WT EC50 [1]	Max ΔF/F0 [1]	R1 = Variant EC50/WT EC50 ([2]; TAS1R2-WT + TAS1R3-WT)	Max ΔF/F0 ([2]; TAS1R2-WT + TAS1R3-WT)	EC50 ([2]; TAS1R2-WT + TAS1R3-WT) [µM]	R1 = Variant EC50/WT EC50 ([2]; TAS1R2-WT/TAS1R3-WT)	Max ΔF/F0 ([2]; TAS1R2-WT/TAS1R3-WT)	EC50 ([2]; TAS1R2-WT/TAS1R3-WT) [µM]
O=S(=O)(O)NC1CCCCC1 [Cyclamate, cyclamate]	1810 ± 55	–	–	–	–	1890 ± 46	–	–	1590 ± 28
C[C@H](CC[C@@H](O[C@@H]1O[C@H](CO[C@@H]2O[C@H](CO)[C@@H](O)[C@H](O)[C@H]2O)[C@@H](O)[C@H](O)[C@H]1O[C@@H]1O[C@H](CO)[C@@H](O)[C@H](O)[C@H]1O)C(C)(C)O)[C@H]1CC[C@@]2(C)[C@@H]3CC=C4[C@@H](CC[C@H](O[C@@H]5O[C@H](CO[C@@H]6O[C@H](CO)[C@@H](O)[C@H](O)[C@H]6O)[C@@H](O)[C@H](O)[C@H]5O)C4(C)C)[C@]3(C)[C@H](O)C[C@]12C [Mogroside V, mogroside V]	18.6 ± 1.6	1.1	1.32 ± 0.04	1.0	1.28 ± 0.03	17.3 ± 1.2	1.0	0.93 ± 0.01	31.3 ± 0.8
